Assay results taken from patent US10308620B2, “Muscarinic M1 receptor positive allosteric modulators” (SUVEN LIFE SCIENCES LIMITED, priority 2015, dated 2019).

What was measured:
[1] = molecular target: recombinant human Muscarinic M1 receptor (Homo sapiens (Human), UniProt P11229); assay: Allosteric potency EC50, CHO cells with pCRE-Luc reporter, in presence of EC20 of acetylcholine; format: cell-based; settings: 4 hours
Method: Determination of Allosteric Potency EC50 Values for Muscarinic M1 Receptor:
A stable CHO cell line expressing recombinant human Muscarinic M1 receptor and pCRE-Luc reporter system was used for cell-based assay. The assay offers a non-radioactive based approach to determine binding of a compound to GPCRs. In this specific assay, the level of intracellular cyclic AMP which is modulated by activation or inhibition of the receptor is measured. The recombinant cells harbor luciferase reporter gene under the control of cAMP response element.
The above cells were grown in 96 well clear bottom white plates in Hams F12 medium containing 10% fetal bovine serum (FBS). Prior to the addition of compounds or standard agonist, cells were serum starved overnight. Increasing concentrations of test compounds were added along with EC20 of acetylcholine in OptiMEM medium to the cells. The incubation was continued at 37° C. in CO2 incubator for 4 hours. Medium was removed and cells were washed with phosphate buffered saline. The cells were lysed and luciferase activity was measured in a Luminometer. Luminescence units were plotted against the compound concentrations using Graphpad software. EC50 values of the compounds were defined as the concentration required in stimulating the luciferase activity by 50% in presence of EC20 of acetylcholine.

[2] = Rodent brain penetration study; format: in vivo; settings: rat, oral, 3 mg/kg, p.o., male Wistar rats, read-out: Single dose Rat Brain Penetration (Cb/Cp)
Method: Rodent Brain Penetration Study
Male Wistar rats (260±40 grams) were used as experimental animals. Three animals were housed in each cage. Animals were given water and food ad libitum throughout the experiment and maintained on a 12 hours light/dark cycle.
Brain penetration was determined in discrete manner in rats. One day prior to dosing day, male Wistar rats were acclimatized and randomly grouped according to their weight. At each time point (0.50, 1 and 2 hours) n=3 animals were used.
The test compounds were suitably preformulated and administered orally at (free base equivalent) 3 mg/kg. Blood samples were removed via cardiac puncture by using isoflurane anesthesia. The animals were sacrificed to collect brain tissue. Plasma was separated and brain samples were homogenized and stored frozen at −20° C. until analysis. The concentrations of the test compounds in plasma and brain were determined using LC-MS/MS method.
The test compounds were quantified in plasma and brain homogenate by qualified LC-MS/MS method using suitable extraction technique. The test compounds were quantified in the calibration range of 1-500 ng/mL in plasma and brain homogenate. Study samples were analyzed using calibration samples in the batch and quality control samples spread across the batch. Extent of brain-plasma ratio was calculated (Cb/Cp).

Male Wistar rats = assay: Object recognition task model (time induced memory deficit); format: in vivo, rat; settings: p.o.; for Exploration time mean ± S.E.M, Familiar object / Exploration time mean ± S.E.M, Novel object: choice trial 24 hours after T1
Method: Object Recognition Task Model
The cognition enhancing properties of compounds of this invention were estimated by using this model.
Male Wistar rats (8-10 weeks old) were used as experimental animals. Four animals were housed in each cage. Animals were kept on 20% food deprivation from a day prior to experimentation. Water was provided ad libitum throughout the experiment. Animals were maintained on a 12 hours light/dark cycle in temperature and humidity controlled room. The experiment was carried out in an open field made up of acrylic. Rats were habituated to individual arenas (open field) for 1 hour in the absence of any objects on day 1.
One group of 12 rats received vehicle and another set of animals received test compounds or test compounds and Donepezil, before the familiar (T1) and choice (T2) trials. During the familiarization phase, (T1), the rats were placed individually in the arena for 3 minutes, in which two identical objects (a1 and a2) were positioned 10 cm from the wall. 24 hours after T1, trial for long-term memory test was performed. The same rats were placed in the same arena as they were placed in T1 trial. During the choice phase (T2) rats were allowed to explore the arena for 3 minutes in presence of a copy of familiar object (a3) and one novel object (b). During the T1 and T2 trial, explorations of each object (defined as sniffing, licking, chewing or having moving vibrissae whilst directing the nose towards the object at a distance of less than 1 cm) were recorded using stopwatch.
T1 is the total time spent exploring the familiar objects (a1+a2).
T2 is the total time spent exploring the familiar object and novel object (a3+b). Discriminative index=Time spent with novel object/(time spent with novel and familiar object).
The object recognition test was performed as described in Behavioural Brain Research, 1988, 31, 47-59.

[3] = Rodent pharmacokinetic study; format: in vivo, rat; settings: male Wistar rats; for clearance / half-life / Vd / Cmax / Tmax / bioavailability: rat, plasma; for Vd: read-out: Vz; for bioavailability: 3 mg/kg oral vs 1 mg/kg i.v.
Method: Rodent Pharmacokinetic Study
Male Wistar rats (260±50 grams) were used as experimental animals. Animals were housed individually in polypropylene cage. Two days prior to study, male Wistar rats were anesthetized with isoflurane for surgical placement of jugular vein catheter. Rats were randomly divided for oral (3 mg/kg) and intravenous (1 mg/kg) dosing (n=3/group) and fasted overnight before oral dosing (p.o.). However, rats allocated to intravenous (i.v.) dosing food and water was provided ad libitum.
At pre-determined point, blood was collected through jugular vein and replenished with an equivalent volume of normal saline. Collected blood was transferred into a labeled eppendorf tube containing 10 μL of heparin as an anticoagulant. Typically blood samples were collected at following time points: 0.08, 0.25, 0.5, 1, 2, 4, 6, 8, and 24 hours post dose. Blood was centrifuged at 4000 rpm for 10 minutes. Plasma was separated and stored frozen at −80° C. until analysis. The concentrations of the test compounds were quantified in plasma by qualified LC-MS/MS method using suitable extraction technique. The test compounds were quantified in the calibration range around 1-1000 ng/mL in plasma. Study samples were analyzed using calibration samples in the batch and quality control samples spread across the batch.
Pharmacokinetic parameters Cmax, Tmax, AUCt, T1/2, clearance, Vz and bioavailability were calculated by non-compartmental model using standard non-compartmental model by using Phoenix WinNonlin 6.0.2 or 6.0.3 version Software package.

Sequence of recombinant human Muscarinic M1 receptor (P11229 whole entry): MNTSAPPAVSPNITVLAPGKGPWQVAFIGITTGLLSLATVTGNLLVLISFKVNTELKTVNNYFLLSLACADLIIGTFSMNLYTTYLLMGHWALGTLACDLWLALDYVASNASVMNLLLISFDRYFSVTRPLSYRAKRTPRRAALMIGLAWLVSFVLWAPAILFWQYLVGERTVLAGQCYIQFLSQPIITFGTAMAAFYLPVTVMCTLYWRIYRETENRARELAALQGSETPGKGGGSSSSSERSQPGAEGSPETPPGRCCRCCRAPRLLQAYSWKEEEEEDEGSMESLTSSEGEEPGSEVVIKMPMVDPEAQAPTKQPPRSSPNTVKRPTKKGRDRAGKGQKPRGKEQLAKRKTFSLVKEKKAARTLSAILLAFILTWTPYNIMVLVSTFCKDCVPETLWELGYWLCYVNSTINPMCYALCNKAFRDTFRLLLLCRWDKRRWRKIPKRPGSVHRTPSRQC

O=C(NC1CCOCC1O)C1=CN(Cc2cccc(F)c2F)c2ccccc2O1 (stereo not shown) [Example 20, N-(3-Hydroxytetrahydrpyran-4-yl)-4-(2,3-difluorobenzyl)-4H-benzo[1,4]oxazine-2-carboxamide]
EC50 [1]: 1250 nM | Kp [2]: 0.82 ± 0.25 | Inference (Male Wistar rats; 10 mg/kg): Active | Exploration time mean ± S.E.M, Familiar object (Male Wistar rats; 10 mg/kg): 12.17 ± 1.84 s | Exploration time mean ± S.E.M, Novel object (Male Wistar rats; 10 mg/kg): 19.94 ± 3.02 s

O=C(N[C@H]1CCCC[C@@H]1O)C1=CN(Cc2cccc(F)c2F)c2ncccc2O1 [Example 33, N-(cis-1S,2S-2-Hydroxycyclohexyl)-4-(2,3-difluorobenzyl)-4H-pyrido[3,2-b][1,4]oxazine-2-carboxamide]
AUC0-t ([3]; 1 mg/kg i.v. (bolus)): 452 ± 135 ng·h/mL | AUC0-t ([3]; 3 mg/kg oral (gavage)): 719 ± 269 ng·h/mL | clearance ([3]; iv, 1 mg/kg i.v. (bolus)): 39 ± 10 mL/min/kg | half-life ([3]; iv, 1 mg/kg i.v. (bolus)): 1.2 ± 0.6 h | Vd ([3]; iv, 1 mg/kg i.v. (bolus)): 3.5 ± 1 L/kg | Cmax ([3]; 3 mg/kg oral (gavage)): 159 ± 26 ng/mL | Tmax ([3]; 3 mg/kg oral (gavage)): 1.5 ± 0.9 h | half-life ([3]; 3 mg/kg oral (gavage)): 3.2 ± 2 h | bioavailability [3]: 53 ± 20% | EC50 [1]: 1180 nM | Kp [2]: 1.96 ± 0.91

O=C(N[C@H]1CCCC[C@@H]1O)C1=CN(Cc2ccccc2)c2ccccc2O1 [Example 4, N-(cis-1S,2S-2-Hydroxycyclohexyl)-4-benzyl-4H-benzo[1,4]oxazine-2-carboxamide]
AUC0-t ([3]; 1 mg/kg i.v. (bolus)): 415 ± 17 ng·h/mL | AUC0-t ([3]; 3 mg/kg oral (gavage)): 607 ± 62 ng·h/mL | clearance ([3]; iv, 1 mg/kg i.v. (bolus)): 40 ± 2 mL/min/kg | half-life ([3]; iv, 1 mg/kg i.v. (bolus)): 1.4 ± 0.1 h | Vd ([3]; iv, 1 mg/kg i.v. (bolus)): 4.7 ± 0.1 L/kg | Cmax ([3]; 3 mg/kg oral (gavage)): 245 ± 27 ng/mL | Tmax ([3]; 3 mg/kg oral (gavage)): 0.58 ± 0.38 h | half-life ([3]; 3 mg/kg oral (gavage)): 1.5 ± 0.3 h | bioavailability [3]: 49 ± 5% | EC50 [1]: 1430 nM | Kp [2]: 1.43 ± 0.01 | Inference (Male Wistar rats; 10 mg/kg): Active | Exploration time mean ± S.E.M, Familiar object (Male Wistar rats; 10 mg/kg): 7.43 ± 0.67 s | Exploration time mean ± S.E.M, Novel object (Male Wistar rats; 10 mg/kg): 11.21 ± 1.26 s

O=C(N[C@H]1CCCC[C@@H]1O)C1=CN(Cc2ccc(Cl)nc2)c2ccccc2O1 [Example 21, N-(cis-1S,2S-2-Hydroxycyclohexyl)-4-(2-chloropyridin-5-ylmethyl)-4H-benzo[1,4]oxazine-2-carboxamide]
AUC0-t ([3]; 1 mg/kg i.v. (bolus)): 1490 ± 149 ng·h/mL | AUC0-t ([3]; 3 mg/kg oral (gavage)): 4270 ± 800 ng·h/mL | clearance ([3]; iv, 1 mg/kg i.v. (bolus)): 11 ± 1 mL/min/kg | half-life ([3]; iv, 1 mg/kg i.v. (bolus)): 1.7 ± 0.3 h | Vd ([3]; iv, 1 mg/kg i.v. (bolus)): 1.5 ± 0.1 L/kg | Cmax ([3]; 3 mg/kg oral (gavage)): 992 ± 150 ng/mL | Tmax ([3]; 3 mg/kg oral (gavage)): 0.67 ± 0.29 h | half-life ([3]; 3 mg/kg oral (gavage)): 2.7 ± 0.3 h | bioavailability [3]: 95 ± 18% | EC50 [1]: 369 nM | Kp [2]: 0.25 ± 0.08 | Inference (Male Wistar rats; 1 mg/kg): Active | Exploration time mean ± S.E.M, Familiar object (Male Wistar rats; 1 mg/kg): 9.18 ± 1.63 s | Exploration time mean ± S.E.M, Novel object (Male Wistar rats; 1 mg/kg): 17.67 ± 2.89 s

O=C(N[C@H]1CCCC[C@@H]1O)C1=CN(Cc2cccc(C(F)(F)F)c2)c2ccccc2O1 [Example 17, N-(cis-1S, 2S-2-Hydroxycyclohexyl)-4-(3-trifluoromethylbenzyl)-4H-benzo[1,4]oxazine-2-carboxamide]
AUC0-t ([3]; 1 mg/kg i.v. (bolus)): 600 ± 74 ng·h/mL | AUC0-t ([3]; 3 mg/kg oral (gavage)): 467 ± 169 ng·h/mL | clearance ([3]; iv, 1 mg/kg i.v. (bolus)): 27 ± 3 mL/min/kg | half-life ([3]; iv, 1 mg/kg i.v. (bolus)): 9.2 ± 2.2 h | Vd ([3]; iv, 1 mg/kg i.v. (bolus)): 22 ± 8 L/kg | Cmax ([3]; 3 mg/kg oral (gavage)): 91 ± 38 ng/mL | Tmax ([3]; 3 mg/kg oral (gavage)): 4 h | half-life ([3]; 3 mg/kg oral (gavage)): 2.6 ± 0.2 h | bioavailability [3]: 26 ± 9% | EC50 [1]: 149 nM | Kp [2]: 1.92 ± 0.24

O=C(N[C@H]1CCCC[C@@H]1O)C1=CN(Cc2ccncc2)c2ccccc2O1 [Example 23, N-(cis-1S,2S-2-Hydroxycyclohexyl)-4-(pyridin-4-ylmethyl)-4H-benzo[1,4]oxazine-2-carboxamide]
AUC0-t ([3]; 1 mg/kg i.v. (bolus)): 419 ± 182 ng·h/mL | AUC0-t ([3]; 3 mg/kg oral (gavage)): 437 ± 138 ng·h/mL | clearance ([3]; iv, 1 mg/kg i.v. (bolus)): 44 ± 21 mL/min/kg | half-life ([3]; iv, 1 mg/kg i.v. (bolus)): 1.5 ± 0.9 h | Vd ([3]; iv, 1 mg/kg i.v. (bolus)): 6.8 ± 7.1 L/kg | Cmax ([3]; 3 mg/kg oral (gavage)): 428 ± 78 ng/mL | Tmax ([3]; 3 mg/kg oral (gavage)): 0.42 ± 0.14 h | half-life ([3]; 3 mg/kg oral (gavage)): 1.2 ± 0.6 h | bioavailability [3]: 35 ± 11% | EC50 [1]: 323 nM | Kp [2]: 0.32 ± 0.02 | Inference (Male Wistar rats; 1 mg/kg): Active | Exploration time mean ± S.E.M, Familiar object (Male Wistar rats; 1 mg/kg): 13.15 ± 1.55 s | Exploration time mean ± S.E.M, Novel object (Male Wistar rats; 1 mg/kg): 17.99 ± 2.53 s

COc1ccc(CN2C=C(C(=O)N[C@H]3CCCC[C@@H]3O)Oc3ccccc32)cc1 [Example 5, N-(cis-1S, 2S-2-Hydroxycyclohexyl)-4-(4-methoxybenzyl)-4H-benzo[1,4]oxazine-2-carboxamide]
AUC0-t ([3]; 1 mg/kg i.v. (bolus)): 1150 ± 62 ng·h/mL | AUC0-t ([3]; 3 mg/kg oral (gavage)): 3980 ± 533 ng·h/mL | clearance ([3]; iv, 1 mg/kg i.v. (bolus)): 14 ± 1 mL/min/kg | half-life ([3]; iv, 1 mg/kg i.v. (bolus)): 4.5 ± 0.2 h | Vd ([3]; iv, 1 mg/kg i.v. (bolus)): 5.6 ± 0.5 L/kg | Cmax ([3]; 3 mg/kg oral (gavage)): 430 ± 35 ng/mL | Tmax ([3]; 3 mg/kg oral (gavage)): 2.83 ± 2.02 h | half-life ([3]; 3 mg/kg oral (gavage)): 3.9 ± 0.1 h | bioavailability [3]: 115 ± 15% | EC50 [1]: 135 nM | Kp [2]: 0.9 ± 0.15

O=C(N[C@H]1CCCC[C@@H]1O)C1=CN(Cc2cccc(F)c2)c2cccc(F)c2O1 [Example 51, N-(cis-1S,2S-2-Hydroxycyclohexyl)-4-{3-fluorobenzyl}-8-fluoro-4H-benzo[1,4]oxazine-2-carboxamide]
AUC0-t ([3]; 1 mg/kg i.v. (bolus)): 533 ± 62 ng·h/mL | AUC0-t ([3]; 3 mg/kg oral (gavage)): 371 ± 149 ng·h/mL | clearance ([3]; iv, 1 mg/kg i.v. (bolus)): 31 ± 4 mL/min/kg | half-life ([3]; iv, 1 mg/kg i.v. (bolus)): 3.6 ± 3 h | Vd ([3]; iv, 1 mg/kg i.v. (bolus)): 9.8 ± 8 L/kg | Cmax ([3]; 3 mg/kg oral (gavage)): 132 ± 32 ng/mL | Tmax ([3]; 3 mg/kg oral (gavage)): 1 h | half-life ([3]; 3 mg/kg oral (gavage)): 2.3 ± 0.5 h | bioavailability [3]: 23 ± 9% | EC50 [1]: 420 nM | Kp [2]: 1.93 ± 0.37
